Reference: the CheMixHub ionic liquid set

Test: xn = mol fraction of the nth substance listed

CCC[N+]1(C)CCCC1.O=S(=O)([N-]S(=O)(=O)C(F)(F)F)C(F)(F)F + CCCCCC[N+]1(C)CCCC1.O=S(=O)([N-]S(=O)(=O)C(F)(F)F)C(F)(F)F
353.15 K, 101 kPa, x2 = 0
Conditions | electrical conductivity [S/m] | viscosity [mPa·s]
– | 1.76 | 11.6

CN(CCO)CCO + CCCCCC[n+]1ccn(C)c1.F[B-](F)(F)F
101 kPa, x1 = 1
Conditions | viscosity [mPa·s]
303.15 K | 57.5
308.15 K | 44.2
313.15 K | 35

CC1COC(=O)O1 (stereo not drawn) + CC[n+]1ccn(C)c1C.O=S(=O)([N-]S(=O)(=O)C(F)(F)F)C(F)(F)F
101.3 kPa, x2 = 0
Conditions | viscosity [mPa·s]
308.15 K | 2.049
348.15 K | 1.14

CC(=O)[O-].CCCC[n+]1ccn(C)c1 + O
Conditions | viscosity [mPa·s]
293.15 K, 100 kPa, x2 = 0.1843 | 559
293.15 K, 100 kPa, x2 = 0.3889 | 298
293.15 K, 100 kPa, x2 = 0.5951 | 124.3
293.15 K, 100 kPa, x2 = 0.8004 | 32.1
298.15 K, 100 kPa, x2 = 0 | 595
298.15 K, 101 kPa, x1 = 0.03479 | 2.23
298.15 K, 101 kPa, x1 = 0.03897 | 2.35
298.15 K, 101 kPa, x1 = 0.04311 | 2.66
303.15 K, 100 kPa, x2 = 0 | 400
303.15 K, 100 kPa, x2 = 0.1843 | 262
303.15 K, 100 kPa, x2 = 0.3889 | 150
303.15 K, 100 kPa, x2 = 0.5951 | 68.8
303.15 K, 100 kPa, x2 = 0.8004 | 19.69
303.15 K, 101 kPa, x1 = 0.03479 | 2.18
303.15 K, 101 kPa, x1 = 0.03897 | 2.29
303.15 K, 101 kPa, x1 = 0.04311 | 2.63
308.15 K, 101 kPa, x1 = 0.03479 | 2.16
308.15 K, 101 kPa, x1 = 0.03897 | 2.25
308.15 K, 101 kPa, x1 = 0.04311 | 2.56
313.15 K, 100 kPa, x2 = 0 | 200
313.15 K, 100 kPa, x2 = 0.0171 | 138.1
313.15 K, 100 kPa, x2 = 0.1843 | 138.2
313.15 K, 100 kPa, x2 = 0.3889 | 85
313.15 K, 100 kPa, x2 = 0.5951 | 41.9
313.15 K, 100 kPa, x2 = 0.8004 | 13.12
313.15 K, 101 kPa, x1 = 0.03479 | 2.13
313.15 K, 101 kPa, x1 = 0.03897 | 2.22
313.15 K, 101 kPa, x1 = 0.04311 | 2.49
318.15 K, 101 kPa, x1 = 0.03479 | 1.74
318.15 K, 101 kPa, x1 = 0.03897 | 2.11
318.15 K, 101 kPa, x1 = 0.04311 | 2.29
323.15 K, 100 kPa, x2 = 0 | 111.7
323.15 K, 100 kPa, x2 = 0.1843 | 79.7
323.15 K, 100 kPa, x2 = 0.3889 | 51.8
323.15 K, 100 kPa, x2 = 0.5951 | 26.97
323.15 K, 100 kPa, x2 = 0.8004 | 9.09
323.15 K, 101 kPa, x1 = 0.03479 | 1.58
323.15 K, 101 kPa, x1 = 0.03897 | 2.07
323.15 K, 101 kPa, x1 = 0.04311 | 2.26
328.15 K, 101 kPa, x1 = 0.03479 | 1.51
328.15 K, 101 kPa, x1 = 0.03897 | 1.91
328.15 K, 101 kPa, x1 = 0.04311 | 2.02
333.15 K, 100 kPa, x2 = 0 | 67.3
333.15 K, 100 kPa, x2 = 0.01197 | 48.8
333.15 K, 100 kPa, x2 = 0.1843 | 48.6
333.15 K, 100 kPa, x2 = 0.3889 | 33.6
333.15 K, 100 kPa, x2 = 0.5951 | 18.26
333.15 K, 101 kPa, x1 = 0.03479 | 1.24
333.15 K, 101 kPa, x1 = 0.03897 | 1.86
333.15 K, 101 kPa, x1 = 0.04311 | 1.97
343.15 K, 100 kPa, x2 = 0 | 41.6
343.15 K, 100 kPa, x2 = 0.1843 | 32.4
343.15 K, 100 kPa, x2 = 0.3889 | 23.31
343.15 K, 100 kPa, x2 = 0.5951 | 13
353.15 K, 100 kPa, x2 = 0 | 27.86
353.15 K, 100 kPa, x2 = 0.1843 | 22.25
353.15 K, 100 kPa, x2 = 0.3889 | 16.58
353.15 K, 100 kPa, x2 = 0.5951 | 9.64
363.15 K, 100 kPa, x2 = 0 | 19.87
363.15 K, 100 kPa, x2 = 0.1843 | 15.93
363.15 K, 100 kPa, x2 = 0.5951 | 7.37
373.15 K, 100 kPa, x2 = 0 | 14.82
373.15 K, 100 kPa, x2 = 0.1843 | 11.94

O + CCCCCCCCCCCCCCCC[n+]1ccccc1.O=C([O-])C(O)c1ccccc1 + NCC(=O)O
101 kPa, x2 = 0, x3 = 0
Conditions | electrical conductivity [S/m]
293.15 K | 0.00012
298.15 K | 0.00015
303.15 K | 0.00016
308.15 K | 0.00017
313.15 K | 0.00019

CCCC[n+]1ccn(C)c1.F[B-](F)(F)F + ClC(Cl)Cl
298.15 K, 101 kPa, x2 = 0
Conditions | electrical conductivity [S/m] | viscosity [mPa·s]
– | 0.194 | 116

C1COCCO1 + CCCC[n+]1ccn(C)c1.F[B-](F)(F)F
Conditions | viscosity [mPa·s]
298.15 K, 100 kPa, x2 = 0 | 1.18

CCCC[n+]1ccn(C)c1.F[B-](F)(F)F + c1ccncc1
298.15 K, 101 kPa, x2 = 0
Conditions | electrical conductivity [S/m] | viscosity [mPa·s]
– | 0.194 | 116

CCCC[n+]1ccn(C)c1.F[B-](F)(F)F + O + NCCO
100 kPa, x1 = 0.2723, x2 = 0.2627
Conditions | viscosity [mPa·s]
303 K | 16.89
308 K | 13.81
318 K | 9.78
323 K | 8.34

CC(=O)[O-].C[NH+](C)C + O
298.15 K, 101 kPa
Conditions | viscosity [mPa·s]
x1 = 0.5942 | 2.59
x1 = 0.8068 | 2.64
x1 = 0.8639 | 2.66

NCC(=O)NCC(=O)O + CCCCCCCCCCCC[N+](C)(C)C.[Br-] + O
100 kPa
Conditions | electrical conductivity [S/m]
293.15 K, x1 = 0.0001801, x2 = 0.0003553 | 0.093
293.15 K, x1 = 0.0001801, x2 = 0.0003787 | 0.095
293.15 K, x1 = 0.0001801, x2 = 0.0004256 | 0.099
293.15 K, x1 = 0.0001802, x2 = 2.706e-05 | 0.0098
298.15 K, x1 = 9.009e-05, x2 = 2.704e-05 | 0.0082
298.15 K, x1 = 0.0001801, x2 = 0.0003553 | 0.096
298.15 K, x1 = 0.0001801, x2 = 0.0003787 | 0.097
298.15 K, x1 = 0.0001801, x2 = 0.0004021 | 0.099
303.15 K, x1 = 1.802e-05, x2 = 2.703e-05 | 0.0078
303.15 K, x1 = 9.009e-05, x2 = 2.704e-05 | 0.0097
308.15 K, x1 = 1.802e-05, x2 = 2.703e-05 | 0.0082
308.15 K, x1 = 9.005e-05, x2 = 0.0004487 | 0.098
313.15 K, x1 = 1.801e-05, x2 = 0.0005368 | 0.093
313.15 K, x1 = 1.802e-05, x2 = 2.703e-05 | 0.0087
313.15 K, x1 = 9.006e-05, x2 = 0.0004019 | 0.098
313.15 K, x1 = 0.0001801, x2 = 0.0003318 | 0.099
